Results on 1 compound are retold here after patent US20240415804A1, “METHOD OF TREATING PANCREATIC CANCER” (University of South Florida, priority 2022, published 2024).

Structures are written as SMILES.

The subject of one assay is Panc02 cells. The experiment in a line: Apoptosis by flow cytometry (Annexin V and PI), Panc02. It counts as cell-based, mouse. The following applies: API 10, 20, 30, 40, 50 μM, 24 h. The method, then:
Panc02 and UN-KC-6141 cells were seeded in 6-well plates allowed to grow to 50-60% confluency. Cells were then treated with API at a dose-dependent concentration (10, 20, 30, 40, 50 μM) or DMSO (1%) as vehicle control and incubated for 24 h at 37° C. in a humidified atmosphere of 5% CO2. Cells were collected and stained with a FITC Annexin V Apoptosis Detection Kit I (BD Bioscience, San Jose, CA, USA) according to the manufacturer's instructions. Acquisition of samples was performed using a flow cytometer BD LSRII (BD Biosciences Immunocytometry Systems, San Jose, CA, USA). FlowJo v10.8 software (TreeStar Inc., Ashland, OR, USA) was used for data analysis.
A general note: A flow cytometer gives signals particle by particle.

Assay [1] deals with SHIP-1. The experiment in a line: SHIP-1 gene and protein expression in tumors of HPC mice. The assay is classed as in vivo, mouse. The note with it: API 25 mg/kg IP 3 times per week for 3-4 weeks, vs vehicle. On the procedure: Earlier studies have shown the anti-tumor activity of API in pre-clinical experimental models of cancer^41, 62-68. The inventors have reported that API increased survival and reduced tumor growth in a heterotopic (H) mouse model of PC (HPC)^55. To investigate if API targets miR-155 and regulates SHIP-1 in the TME of an HPC mouse model, HPC mice were treated with API at a dose of 25 mg/kg (IP) 3 times per week for 3-4 weeks.
(§1) All female C57BL/6 mice (6-8 weeks of age) described in this study were purchased from Envigo (Indianapolis, IN, USA) and were acclimatize for one week in a pathogen-free animal facility (University of South Florida (USF) vivarium) before injections with PC cells. To generate heterotopic pancreatic cancer (HPC) models, mice were subcutaneously injected with 1.5×10^5 murine Panc02 (HPC mice) or 5×10^6 murine UN-KC-6141 cells (KC-HPC mice), in sterile 1× phosphate buffer saline (PBS), in the lower ventral abdomen, while control (CTRL) mice received sterile 1×PBS. […]
(§2) Isolation of total RNA from digested pancreatic tumors and BM cells was performed using a RNeasy Mini Kit (Qiagen), according to the manufacturer's instructions. RT-PCR of quantified and normalized total RNA was performed using a High-Capacity cDNA RT Kit with an RNase Inhibitor (Applied Biosystems), according to the manufacturer's instructions. […]

The subject of assay [2] is SHIP-1. The experiment in a line: SHIP-1 gene and protein expression in tumors of KC-HPC mice. The note with it: API 25 mg/kg IP three times per week for 17 days, vs vehicle. It counts as in vivo, mouse. The method, then: To build on these findings, the inventors then used a novel pancreatic cancer cell line, UN-KC-6141, that resembles human PC due to its expression of a mutated Kras and generated mice harboring these tumor cells, called KC-HPC mice. Such mice were treated with API at a dose of 25 mg/kg (IP) three times per week for 17 days. The inventors examined if API also targets miR-155 and regulates SHIP-1 in the tumors from KC-HPC mouse model.
as §1, §2

Assay [3] has as its system heterotopic (H) mouse model of PC (HPC). The following applies: earlier report (ref 55); cited from earlier work.
In assay [4] the test system is SHIP-1. The following applies: API-treated OPC mice, previous findings (ref 12); cited from earlier work.

Take `O=c1cc(-c2ccc(O)cc2)oc2cc(O)cc(O)c12` [API, 40,5,7-Trihydroxyflavone, 5,7-Dihydroxy-2-(4-hydroxyphenyl)-4-benzopyrone]: the “apoptosis (Annexin V and PI)” value with Panc02 cells is “induces apoptosis”. In the assay on SHIP-1 [1], the “SHIP-1 gene expression in tumor” value is listed as “increased” and the “SHIP-1 protein expression in tumor” value was “increased”. For the same compound, in the assay with SHIP-1 [2], the “SHIP-1 gene expression in tumor” value is given as “significantly increased” and the “SHIP-1 protein expression in tumor” value is “significantly increased”. For the same compound, in assay [3], the survival entry is on record as “increased” and the tumor growth result is recorded as “reduced”. In addition, in the assay with SHIP-1 [4], the “SHIP-1 gene expression in pancreatic tumor” value is listed as “increased” and the “SHIP-1 protein expression in pancreatic tumor” value is “increased”.
